Assay results from PMC7406860, “Redox Imbalance and Oxidative DNA Damage During Isoniazid Treatment of HIV-Associated Tuberculosis: A Clinical and Translational Pharmacokinetic Study” (Frontiers in Pharmacology, 2020).
Like-named read-outs stand apart in the source and are kept apart here.

Columns and labels:
[1] = Clinical parent-metabolite pharmacokinetic study, plasma exposures after oral isoniazid; assay type: in vivo, human (TB patients); conditions: for AUC(0-t): human
Protocol: The parent-metabolite clinical pharmacokinetic study was approved by the Institutional Review Board of Rutgers University, Newark (protocol #20170001150). We performed intensive pharmacokinetic sampling for drug and metabolite concentrations in 10 TB patients (4 latent infection patients and 6 active TB patients) treated with isoniazid, in order to identify the relevant metabolite concentrations for subsequent pre-clinical experiments. After an overnight fast, patients were dosed with oral isoniazid (300 mg). A pre-dose blood draw was performed, with additional blood draws at 1, 2, 4, 6, and 8 h after dosing. Following centrifugation, plasma samples were stored at -80C until shipment to Alturas Analytics (Moscow, ID) for analysis. […] Noncompartmental pharmacokinetic analysis was performed to determine area under the concentration-versus-time curve (AUC), extrapolated over a 24-h dosing interval according to the slope defined in the elimination phase.

HepG2 cells [2] = test: CometChip imaging of cellular DNA damage; assay type: cell-based, human; conditions: HepG2, 10 µM, 1 week; as compared to isoniazid
Protocol: (§1) The human liver carcinoma cell line, HepG2, is highly differentiated and is often used to screen the cytotoxicity potential of new chemical entities early in drug development ([Gerets et al., 2012]). HepG2 cells were cultured in Dulbecco’s modified Eagle’s medium (DMEM) supplemented with 10% fetal bovine serum (FBS), 100 U/ml penicillin, 100 μg/ml streptomycin, and 2mM L-glutamine, unless otherwise stated. Cells were continuously incubated at 37°C in a humidified 5% CO2/95% air environment and plated in a 12-well plate at 4x10^5 cells/well, over a duration of 24 h prior to compound exposure. Compound stocks dissolved in water were freshly made each exposure day. Cellular supernatant was replaced with 2 ml of culture media containing 10 µM of compound and left to incubate until 90% confluency was reached. Cell passages were conducted every 3 days under continual exposure to the designated compound for the indicated time period. Cellular supernatant was collected at each passage, clarified, aliquoted, and stored at -80°C for future analysis. Treated cells and supernatants were then examined for markers of cytotoxicity, mitochondrial toxicity, and oxidative DNA damage as described below.
Cells treated for 1 week with 10 µM of compound were plated onto a CometChip (Trevigen) at 2x10^5 cells/ml in a single cell suspension ([Ge et al., 2014]). Cells were incubated on the chip for 60 min at 37°C. The plate was then gently washed with PBS and coated with 1% low melting agarose. After the agarose was solidified by cooling at 4°C, the plate was washed with pre-chilled non-activated alkaline lysis buffer (2.5 M NaCl, […] Na2EDTA, 10mM Tris, pH 10). The chip was lysed overnight at 4°C by submerging the chip in the alkaline lysis buffer containing 1% Triton-X. The plate was then washed with PBS and placed in an electrophoresis chamber filled with pre-chilled alkaline electrophoresis buffer (2mM Na2 EDTA, 300 mM NaOH). Following a 40 min incubation at 4°C to allow for alkaline unwinding, electrophoresis was carried out at 80 volts for 30 min at 4°C. […]

HepG2 cells [3] = test: 8-OHdG in cellular supernatant (competition ELISA); assay type: cell-based, human; conditions: HepG2, 10 µM, 28 days exposure
Protocol: as §1
Determination of 8-OHdG content in cellular supernatant was assed using an in-house competition ELISA. […] Absorbance at 405 nm was then measured on a Synergy H1 Hybrid Multi-Mode Reader (BioTek).

HepG2 cells [4] = test: Free thiol availability assay (ThiolTracker Violet), glutathione depletion; assay type: cell-based, human; conditions: HepG2, 10 µM, 28-day exposure period
Protocol: as §1, with “Cellular supernatant was collected at each passage, clarified, aliquoted, and stored at -80°C for future analysis. Treated cells and supernatants were then examined for markers of cytotoxicity, mitochondrial toxicity, and oxidative DNA damage as described below.” left out
By serving as targets of ROS, thiols provide the cellular defense system against oxidative stress. […] Cellular glutathione depletion was quantified in a free thiol availability assay ([Mandavilli and Janes, 2010]). […] Following a 30 min incubation at 37°C, cells were washed three times with D-PBS +C/M. Fluorescent intensity at 404nmEx/526nmEm was measured on a Synergy H1 Hybrid Multi-Mode Reader (BioTek).

HepG2 cells [5] = test: Immunofluorescence for γ-H2AX; assay type: cell-based, human; conditions: HepG2, 10 µM, 1-week exposure period; compared among the four compounds
Protocol: as §1
H2Ax is a core histone protein found in the nucleosome, and the phosphorylation of H2Ax is a marker of DNA damage caused by ROS. […]

HepG2 cells [6] = test: Mitochondrial membrane integrity (TMRM); assay type: cell-based, human; conditions: HepG2, 10 µM, 28 days of exposure
Protocol: as §1, with “Treated cells and supernatants were then examined for markers of cytotoxicity, mitochondrial toxicity, and oxidative DNA damage as described below.” left out
To assess mitochondrial membrane integrity, black 96-well polystyrene clear bottom plates were coated with 50 µg/ml of poly-d-lysine for 1 h at 37°C. […] Following three washes with PBS, fluorescent intensity at 488nmEx/570nmEm was measured on a Synergy H1 Hybrid Multi-Mode Reader (BioTek).

HepG2 cells [7] = test: ATP production (Mitochondrial ToxGlo Assay); assay type: cell-based, human; conditions: HepG2, 10 µM, 28 days of treatment
Protocol: The human liver carcinoma cell line, HepG2, is highly differentiated and is often used to screen the cytotoxicity potential of new chemical entities early in drug development ([Gerets et al., 2012]). HepG2 cells were cultured in Dulbecco’s modified Eagle’s medium (DMEM) supplemented with 10% fetal bovine serum (FBS), 100 U/ml penicillin, 100 μg/ml streptomycin, and 2mM L-glutamine, unless otherwise stated. Cells were continuously incubated at 37°C in a humidified 5% CO2/95% air environment and plated in a 12-well plate at 4x10^5 cells/well, over a duration of 24 h prior to compound exposure. Compound stocks dissolved in water were freshly made each exposure day. […]
Mitochondrial toxicity analysis was assayed using the Mitochondrial ToxGlo Assay (Promega, Madison, WI) following the manufacturer’s instructions. […] Following a 24-h incubation with compound, cytotoxicity was evaluated by the addition of a fluorogenic peptide substrate, bis-AAF-R110, to the cell supernatant for 30 min at 37°C. […] After the cells were allowed to incubate for 30 min at 37°C, fluorescence intensity was measured at 485nmEx/525nmEm. […] Cell lysis mixture was transferred to a 96-well flat solid white bottom plate and luminescence intensity was measured. Assays of fluorescence and luminescence activity were performed with a Synergy H1 Hybrid Multi-Mode Reader (BioTek, Winooski, VT).

HepG2 cells [8] = test: Cytotoxicity (bis-AAF-R110 substrate, Mitochondrial ToxGlo Assay), long-term exposure; assay type: cell-based, human; conditions: HepG2, 10 µM, up to 28 days exposure
[9] = Linear regression of urine oxidative DNA damage (8-OHdG) on isoniazid pharmacokinetic exposures in HIV/TB patients; assay type: in vivo, human (HIV/TB patients, Botswana)
Description: We conducted a prospective cohort study of isoniazid pharmacokinetics among HIV/TB patients at 22 public clinics and Princess Marina Hospital in Gaborone, Botswana. The study population has been previously described ([Vinnard et al., 2017]). Eligibility criteria included citizens of Botswana, HIV infected adults (21 years of age or older) naïve to ART therapy, and newly diagnosed with pulmonary TB initiated on standard first-line TB regimens at weight-based dosing bands recommended in accordance with WHO guidelines. The study visit occurred between 5 and 28 days after initiation of first-line TB therapy that included isoniazid, prior to initiation of ART therapy.
After an overnight fast, the anti-TB drugs were directly administered. Blood samples (10 ml) were drawn at 0, 0.3, 0.9, 2.2, 4.5, and 8 h post-dosing, based on optimal sampling theory to estimate isoniazid pharmacokinetic parameters. Plasma isoniazid concentrations were measured with liquid chromatography-tandem mass spectrometry (LC-MS/MS) methods as previously described. The peak plasma concentration (Cmax) was obtained directly from the concentration-versus-time data), model-predicted isoniazid concentrations were used to estimate the area under the concentration-versus-time curve during a 24-h interval (AUC0-24). A spot urine sample (approximately 50 ml) was collected 4 h following anti-TB drug dosing and frozen at -80C until analysis. We measured urinary concentrations of 8-OHdG, a marker of oxidative DNA damage that is stable in cryopreserved urine samples, normalized to urine creatinine. The DNA Damage Competitive ELISA kit (ThermoFisher Scientific) was performed using a 1:4 dilution of urine-to-assay buffer. The manufacturer’s instructions were followed with one modification to the protocol. Antigen binding was performed overnight at 4°C with shaking in lieu of a 2-h incubation at room temperature. Each assay was performed in triplicate. Optical absorption was assessed using a Synergy H1 Hybrid Multimode Reader (BioTek). […]

[10] = 10 isoniazid-treated patients, oral isoniazid 300 mg, noncompartmental, extrapolated over 24-h dosing interval

For `CC(=O)NN` [Acetylhydrazine], the “Observed median (range) of plasma AUC0-24” value [1, 10] was 66.6 (43.2, 198.0) uM*hr and the “DNA damage by CometChip microscopy” value (HepG2 cells [2]) was “greater levels of DNA damage”.
For `CC(=O)NNC(=O)c1ccncc1` [Acetylisoniazid], the AUC(0-t) ([1]; in vivo, po, 300 mg) was 158 µM·h and the “DNA damage by CometChip microscopy” value (HepG2 cells [2]) was “greater levels of DNA damage”.
With `NN` [Hydrazine] the “8-OhDG levels in cell supernatant” value (HepG2 cells [3]) was “highest increase”, the “Observed median (range) of plasma AUC0-24” value [1, 10] was 14.5 (3.0, 27.8) uM*hr and the “DNA damage by CometChip microscopy” value (HepG2 cells [2]) was “greater levels of DNA damage”. For the same compound, the “Thiol depletion (free thiol availability)” value (HepG2 cells [4]) was “greatest”, the “γ-H2AX levels (double-stranded DNA breaks)” value (HepG2 cells [5]) was “greatest” and the “TMRM depletion (mitochondrial membrane integrity)” value (HepG2 cells [6]) was “greatest depletion”. The “Cellular ATP production impairment” value (HepG2 cells [7]) was “greatest impairment”.
In the case of `NNC(=O)c1ccncc1` [Isoniazid], the AUC(0-t) ([1]; plasma, 10 isoniazid-treated patients, oral isoniazid 300 mg, noncompartmental, extrapolated over 24-h dosing interval, read-out: Observed median (range) of plasma AUC0-24) is reported as 60.5 µM·h, the Overall cytotoxicity (HepG2 cells [8]) is reported as “no appreciable cytotoxicity” and the “Unadjusted regression coefficient (95% CI), isoniazid log AUC0-24 vs urine oxidative DNA damage” value ([9]; HIV/TB patients, first-line TB therapy) is reported as 0.474 (-0.272, 1.221). The “Unadjusted regression coefficient (95% CI), isoniazid Cmax (mg/L) vs urine oxidative DNA damage” value ([9]; HIV/TB patients, first-line TB therapy, urine 8-OHdG normalized to creatinine) was 0.153 (-0.060, 0.366) and the “Adjusted regression coefficient (95% CI), isoniazid Cmax (mg/L) vs urine oxidative DNA damage” value ([9]; adjusted for body weight, creatinine clearance, GSTA2 genotype) was 0.241 (0.020, 0.462).
